Some results are limits rather than exact numbers.

The source of these data is patent publication US11414379B2, “SPAK kinase inhibitors as neuroprotective agents” (United States Government as represented by the Department …, priority 2018, dated 2022).

The subject of data set [1] is KCCs sites-1/2 (KCC2 Thr906/1007 or KCC3 Thr991/1048) phosphorylation. As to the kind of experiment: Phosphorylation immunoblot in HEK293 cells. The format is cell-based, human. The conditions noted are these: only at this concentration. The protocol: HEK293 (human embryonic kidney 293) cells were cultured on 10-cm-diameter dishes in DMEM supplemented with 10% (v/v) foetal bovine serum, 2 mM L-glutamine, 100 U/ml penicillin and 0.1 mg/ml streptomycin. HEK293 cells were transfected with a mixture of 20 μl of 1 mg/ml polyethylenimine (Polysciences) and 5-10 μg of plasmid DNA as described previously (Durocher et al., 2002). 36 hours post-transfection cells were stimulated with either control isotonic or hypotonic medium for a period of 30 minutes. Cells were lysed in 0.3 mL of ice-cold lysis buffer/dish, lysates were clarified by centrifugation at 4° C. for 15 minutes at 26,000 g and the supernatant aliquots were frozen in liquid nitrogen and stored at −20° C. Protein concentrations were determined using the Bradford method. Cells were treated with the indicated concentrations of the SPAK/OSR1 inhibitors. […]
The membranes were incubated for 30 min with TBST (Tris-buffered saline, 0.05% Tween-20) containing 5% (w/v) skim milk. […] After repeating the washing steps, signals were detected with enhanced chemiluminescence reagent. […] The densities of bands were measured with ImageJ. […]
HEK293 cells were transfected with a DNA construct encoding wild type N-terminally FLAG-tagged KCC2. […] See FIG. 3 for Western blot quantitation. […]
On the technique in general: In western blotting, separated proteins are transferred to a membrane and probed.

For a further data set, the system named is NKCC1 pThr203. As to the kind of experiment: Phosphorylation immunoblot in KCC2-transfected HEK293 cells. The format is cell-based, human. How it is done: HEK293 (human embryonic kidney 293) cells were cultured on 10-cm-diameter dishes in DMEM supplemented with 10% (v/v) foetal bovine serum, 2 mM L-glutamine, 100 U/ml penicillin and 0.1 mg/ml streptomycin. HEK293 cells were transfected with a mixture of 20 μl of 1 mg/ml polyethylenimine (Polysciences) and 5-10 μg of plasmid DNA as described previously (Durocher et al., 2002). 36 hours post-transfection cells were stimulated with either control isotonic or hypotonic medium for a period of 30 minutes. Cells were lysed in 0.3 mL of ice-cold lysis buffer/dish, lysates were clarified by centrifugation at 4° C. for 15 minutes at 26,000 g and the supernatant aliquots were frozen in liquid nitrogen and stored at −20° C. Protein concentrations were determined using the Bradford method. Cells were treated with the indicated concentrations of the SPAK/OSR1 inhibitors. […] Hypotonic low chloride buffer was 67.5 mM sodium-gluconate, 2.5 mM potassium-gluconate, 0.25 mM CaCl2), 0.25 mM MgCl2, 0.5 mM Na2HPO4, 0.5 mM Na2SO4 and 7.5 mM HEPES (pH 7.5).
The membranes were incubated for 30 min with TBST (Tris-buffered saline, 0.05% Tween-20) containing 5% (w/v) skim milk. The blots were then washed six times with TBST and incubated for 1 hour at room temperature with secondary HRP-conjugated antibodies diluted 5000-fold in 5% (w/v) skim milk in TBST. After repeating the washing steps, signals were detected with enhanced chemiluminescence reagent. Immunoblots were developed using a film automatic processor (SRX-101; Konica Minolta Medical) and films were scanned at 600 dpi (PowerLook 1000; UMAX). Figures were generated using Photoshop/Illustrator (Adobe). The densities of bands were measured with ImageJ. For phospho-antibody immunoprecipitation, KCC isoforms were immunoprecipitated from indicated cell extracts. 2 mg of the indicated clarified cell extract were mixed with 15 μg of the indicated phospho-specific KCC antibody conjugated to 15 μl of protein-G-Sepharose, in the added presence of […] of the dephosphorylated form of the phosphopeptide antigen, and incubated 2 hours at 4° C. with gentle shaking. Immunoprecipitates were washed three times with 1 mL of lysis buffer containing 0.15 M NaCl and twice with 1 ml of buffer A. Bound proteins were eluted with 1×LDS sample buffer.
HEK293 cells were transfected with a DNA construct encoding wild type N-terminally FLAG-tagged KCC2. 36 hrs post-transfection, cells were exposed 30 min to either control isotonic or hypotonic low [C1^−] conditions, then treated in the same conditions for an additional 30 min with the indicated inhibitors at the concentrations noted. Cell lysates were subjected to SDS-PAGE and Western blotting with the indicated antibodies. See FIG. 3 for Western blot quantitation.
Referring to FIG. 2, concentration-response experiments testing effects of Closantel analogs on phosphorylation of KCC2 Thr906/Thr1007 are shown. HEK293 cells were transfected with DNA construct encoding wild type N-terminally FLAG-tagged KCC2. 36 h post-transfection, cells were exposed 30 min to either control isotonic conditions or hypotonic low Cl^− conditions, then treated in the same conditions with the specified inhibitors (1b, 1c, 1f, 1d, 1h, and 1g, respectively) at the indicated concentrations for an additional 30 min. Lysates were subjected to SDS-PAGE and Western blotting with the indicated antibodies.
Referring to FIG. 3, HEK293 cells were transfected with the DNA construct encoding wild type N-terminally FLAG-tagged KCC2. 36 h post-transfection, cells were exposed 30 min to either control isotonic or hypotonic low Cl^− conditions, then treated in the same conditions with the specified inhibitors at the indicated concen-trations for an additional 30 min. Lysates were subjected to SDS-PAGE and Western blotting with the indicated antibodies. Closantel, STOCK1S-14279 and STOCK1S-50699 were used as reference compounds.

The target in the next data set is GSK3b (Homo sapiens, UniProt P49841). Put plainly: Kinase panel (Dundee profiling). It counts as biochemical. As to conditions: read-out: % residual kinase activity. How it is done:
(§1) The kinase selectivity of ZT-1a was further assessed using standard radioisotopic enzymatic assays against a panel of 140 recombinant kinases (Dundee profiling, Table 2) (Bain et al. (2007) The Biochemical journal 408, 297-315). ZT-1a at a concentration of 10 μM inhibited only MAPKAP-K2 activity 85±7% compared to DMSO control, representing high kinase selectivity.
(§2) Referring to Table 2, ZT-1a was tested at 10 and 1 μM against a panel of 140 recombinant kinases in an enzymatic activity-based assay performed by the International Centre for Kinase Profiling in the MRC Protein Phosphorylation and Ubiquitylation Unit. Values represent % residual kinase activity (mean+/−SEM, n=3). Kinases labelled with an asterick* are inhibited ≥50% by ZT-1a.

A further data set has as its target ZAP70 (Homo sapiens, UniProt P43403). Put plainly: Kinase panel (Dundee profiling). The format is biochemical. As to conditions: read-out: % residual kinase activity. The protocol: as §1, §2
The next data set has as its target CHK2 (Homo sapiens, UniProt O96017). Put plainly: Kinase panel (Dundee profiling). As to conditions: read-out: % residual kinase activity. It counts as biochemical. How it is done:
as §1, §2

In another data set the target is LKB1 (Homo sapiens, UniProt Q15831). Put plainly: Kinase panel (Dundee profiling). It counts as biochemical. As to conditions: read-out: % residual kinase activity. The protocol: as §1, §2
Data set [2] in a line: ZT-1a content in brain and plasma, sham vs tMCAO mice, LC-MS/MS. The conditions noted are these: 2 hrs post-injection. It counts as in vivo, mouse. How it is done: ZT-1a content in brain homogenates and plasma was assayed at the University of Pittsburgh Small Molecule Biomarker Core, using liquid chromatography-tandem mass spectrometry (LC-MS/MS). C57BL/6j mice (normotensive male, 11 weeks old) at 3 hr post Sham surgery or tMCAO were intraperitoneally injected with 5 mg/kg ZT-1a. At 2 hr post injection, blood was collected into heparin-treated EP tubes by a cardiac puncture. After a brief cardiac perfusion with ice-cold normal saline, brain tissues (contralateral and ipsilateral hemispheres) were collected. Plasma samples were prepared by centrifugation of whole blood for 10 min at 1,500 g using a refrigerated centrifuge. Brain tissues and plasma samples were diluted, and protein was precipitated with acetonitrile prior to detection of ZT-1a with a triple quad mass spectrometer. Glyburide was used as the internal standard. Samples were then injected by autosampler and ZT-1a was eluted from a Waters Acquity UPLC BEH C18, 1.7 um, 2.1×100 mm reversed-phase column with a water (with 0.1% formic acid) and acetonitrile (with 0.1% formic acid) gradient.

GSK3b, sequence (P49841 whole entry, species assumed): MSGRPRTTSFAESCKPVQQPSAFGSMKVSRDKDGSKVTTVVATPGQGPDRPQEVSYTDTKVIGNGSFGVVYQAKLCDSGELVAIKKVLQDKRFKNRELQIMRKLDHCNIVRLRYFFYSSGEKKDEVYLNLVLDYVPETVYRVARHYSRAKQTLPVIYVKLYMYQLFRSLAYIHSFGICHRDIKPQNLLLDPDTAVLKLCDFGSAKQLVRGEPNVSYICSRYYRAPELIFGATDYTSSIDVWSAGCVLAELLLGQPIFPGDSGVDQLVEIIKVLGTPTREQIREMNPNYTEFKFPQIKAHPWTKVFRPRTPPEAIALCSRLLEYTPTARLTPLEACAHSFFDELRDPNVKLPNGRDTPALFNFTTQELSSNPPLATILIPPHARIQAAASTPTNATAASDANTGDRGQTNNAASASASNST
LKB1, sequence (Q15831 whole entry, species assumed, the tested form may be a part): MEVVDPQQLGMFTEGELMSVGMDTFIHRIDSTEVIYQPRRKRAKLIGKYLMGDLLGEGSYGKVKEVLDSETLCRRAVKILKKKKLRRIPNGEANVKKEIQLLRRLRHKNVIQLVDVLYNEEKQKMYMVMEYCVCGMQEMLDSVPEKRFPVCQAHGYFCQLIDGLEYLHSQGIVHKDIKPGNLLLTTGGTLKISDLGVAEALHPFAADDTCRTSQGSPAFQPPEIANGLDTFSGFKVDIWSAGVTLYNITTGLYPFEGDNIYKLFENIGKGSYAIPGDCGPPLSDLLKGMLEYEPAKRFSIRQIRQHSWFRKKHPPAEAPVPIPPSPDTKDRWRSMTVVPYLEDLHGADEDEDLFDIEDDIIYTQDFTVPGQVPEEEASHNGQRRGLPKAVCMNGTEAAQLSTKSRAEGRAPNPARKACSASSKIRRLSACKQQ
LKB1, sequence (Q7RTN6 whole entry partner, species assumed, the tested form may be a part): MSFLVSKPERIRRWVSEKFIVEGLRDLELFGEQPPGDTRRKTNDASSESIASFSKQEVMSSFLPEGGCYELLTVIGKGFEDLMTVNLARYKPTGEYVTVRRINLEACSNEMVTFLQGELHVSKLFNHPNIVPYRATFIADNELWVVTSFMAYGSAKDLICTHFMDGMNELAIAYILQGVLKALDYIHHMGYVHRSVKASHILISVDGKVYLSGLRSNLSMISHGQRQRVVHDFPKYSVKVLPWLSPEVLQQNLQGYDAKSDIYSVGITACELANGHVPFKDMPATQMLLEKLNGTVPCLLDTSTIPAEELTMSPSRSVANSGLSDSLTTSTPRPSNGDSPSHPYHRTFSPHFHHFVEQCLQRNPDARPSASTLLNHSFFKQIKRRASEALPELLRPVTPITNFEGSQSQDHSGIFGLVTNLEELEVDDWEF
LKB1, sequence (Q9Y376 whole entry partner, species assumed, the tested form may be a part): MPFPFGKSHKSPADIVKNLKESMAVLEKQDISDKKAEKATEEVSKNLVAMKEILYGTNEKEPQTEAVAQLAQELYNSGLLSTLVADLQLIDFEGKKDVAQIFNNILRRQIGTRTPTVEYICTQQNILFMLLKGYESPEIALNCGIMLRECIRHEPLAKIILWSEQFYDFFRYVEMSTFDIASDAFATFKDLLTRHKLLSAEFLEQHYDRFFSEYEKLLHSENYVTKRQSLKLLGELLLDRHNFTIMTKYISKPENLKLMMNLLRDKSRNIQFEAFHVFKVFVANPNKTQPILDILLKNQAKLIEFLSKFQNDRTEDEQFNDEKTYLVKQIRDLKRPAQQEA
ZAP70, sequence (P43403 whole entry, species assumed): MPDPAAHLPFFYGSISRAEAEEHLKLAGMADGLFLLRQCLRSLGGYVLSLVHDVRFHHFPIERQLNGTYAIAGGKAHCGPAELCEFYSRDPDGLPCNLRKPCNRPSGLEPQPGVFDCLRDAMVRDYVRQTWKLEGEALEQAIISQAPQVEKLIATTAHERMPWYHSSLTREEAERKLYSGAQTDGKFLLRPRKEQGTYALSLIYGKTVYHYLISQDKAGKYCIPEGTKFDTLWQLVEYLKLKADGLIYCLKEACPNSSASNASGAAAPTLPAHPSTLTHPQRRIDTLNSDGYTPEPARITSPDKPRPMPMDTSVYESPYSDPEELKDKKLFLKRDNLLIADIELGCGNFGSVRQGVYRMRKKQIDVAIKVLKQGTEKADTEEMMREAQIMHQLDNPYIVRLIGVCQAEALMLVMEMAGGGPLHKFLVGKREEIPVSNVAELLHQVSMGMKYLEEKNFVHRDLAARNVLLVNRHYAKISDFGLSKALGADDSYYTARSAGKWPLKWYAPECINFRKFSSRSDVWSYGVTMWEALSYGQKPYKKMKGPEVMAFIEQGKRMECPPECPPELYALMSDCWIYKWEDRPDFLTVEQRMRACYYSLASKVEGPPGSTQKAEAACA
CHK2, sequence (O96017 whole entry, species assumed): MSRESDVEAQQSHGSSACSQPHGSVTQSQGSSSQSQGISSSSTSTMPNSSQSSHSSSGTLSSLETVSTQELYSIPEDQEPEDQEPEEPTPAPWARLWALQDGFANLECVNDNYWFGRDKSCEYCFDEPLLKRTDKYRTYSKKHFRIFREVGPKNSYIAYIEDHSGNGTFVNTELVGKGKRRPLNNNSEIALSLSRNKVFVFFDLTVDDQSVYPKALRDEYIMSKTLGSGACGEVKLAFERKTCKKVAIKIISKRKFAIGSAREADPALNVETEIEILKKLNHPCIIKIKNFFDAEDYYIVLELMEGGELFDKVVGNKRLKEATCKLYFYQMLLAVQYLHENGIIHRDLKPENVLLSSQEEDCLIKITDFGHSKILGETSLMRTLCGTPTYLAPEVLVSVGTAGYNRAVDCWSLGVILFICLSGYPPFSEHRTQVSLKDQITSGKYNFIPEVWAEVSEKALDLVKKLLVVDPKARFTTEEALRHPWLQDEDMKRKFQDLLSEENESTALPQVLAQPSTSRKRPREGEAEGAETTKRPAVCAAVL

Take `Cc1cc(C(C#N)c2ccc(Cl)cc2)c(Cl)cc1NC(=O)c1cc(I)cc(I)c1O` (centres unmarked) [Closantel]: in data set [1], the “concentration at which phosphorylation of KCCs site-1 was significantly inhibited” value was 10 µM.

As for `Cc1cc(C(C#N)c2ccc(Cl)cc2)c(Cl)cc1NC(=O)c1cc(Cl)ccc1O` (centres unmarked) [ZT-1a, 5-chloro-N-(5-chloro-4-((4-chlorophenyl)(cyano)methyl)-2-methylphenyl)-2-hydroxy-benzamide], the inhibition at 1 µM in the data set on NKCC1 pThr203 (Homo sapiens, read-out: inhibition of NKCC1 p-Thr203/207/212, up to, at 1 μM, n=4) was ≤ 72%. In the data set on NKCC1 pThr203 (hypotonic low Cl- conditions, concentration inhibiting phosphorylation), the “NKCC1 pThr203 (μM) hypo” value is given as 1, 1 μM. Besides, in the data set on NKCC1 pThr203 (isotonic conditions, concentration inhibiting phosphorylation), the “NKCC1 pThr203 (μM) Iso” value is 1, 1 μM. For the same molecule, the remaining activity at 1 µM was found to be 39 ± 4% at GSK3b (1 μM), 120 ± 1% on ZAP70 (1 μM), 106 ± 1% on CHK2 (1 μM) and 107 ± 8% on LKB1 (1 μM). The remaining activity at 10 µM on GSK3b (10 μM) is 38 ± 12%; at ZAP70 (10 μM) it was 97 ± 9%; on CHK2 (10 μM) it was 68 ± 6%; on LKB1 (10 μM), 115 ± 11%. Moreover, the “brain concentrations, stroke mice vs sham-controls” value in data set [2] (5 mg/kg i.p. at 3 hrs after tMCAO, n=10-11) is listed as ~1.8 fold. Further, the “plasma bioavailability, sham control vs ischemic stroke mice” value in data set [2] (5 mg/kg i.p., p=0.29) is “no significant difference”.
